Test results: US9302996B2, “Continuous arycyclic compound” (MITSUBISHI TANABE PHARMA CORPORATION, priority 2010, dated 2016)

Assays:
[1] = system: C57BL/6J mice; assay: Antifeeding activity (high fat diet intake up to 4 hours); format: in vivo; details: Mus musculus, male C57BL/6J mice, 5 mg/kg oral, food ingested up to 4 hours, read-out: Antifeeding rate (5 mg/kg)
Description: 7 to 10 weeks-old male C57BL/6J mice were fasted overnight, and the test compound suspended in 0.2% carboxymethylcellulose solution was orally administered. Immediately after the administration, high fat diet (Oriental Yeast Co., Ltd, 60 cal % fat) was provided and freely fed. An amount of food ingested up to 4 hours was measured, and a lowering rate (an antifeeding rate) of the amount of food ingested in the Test compound administered group was calculated as compared to that of the solvent control group as a control.

[2] = system: ICR mice; assay: Triglyceride (TG) in blood plasma increase-inhibiting action due to lipid administration; format: in vivo; details: Mus musculus; male ICR mice, 5 mg/kg oral, lipid (Intralipos 20%) after 30 minutes, plasma TG 2 hours after lipid; read-out: Inhibiting rate of TG-increase in blood plasma (5 mg/kg)
Description: 6 to 9 weeks-old male ICR mice were fasted overnight, and Test compound suspended in 0.2% carboxymethyl cellulose solution was orally administered to the mice. A lipid (Intralipos 20%, OTSUKA PHARMACEUTICAL CO., LTD., 10 mL/kg) was orally administered after 30 minutes. Blood was collected from tail vein immediately before the lipid administration, and after 2 hours from the same to obtain blood plasma. Measurement of TG in blood plasma was carried out by using a triglyceride E Test Wako (Wako Pure Chemical Industries, Ltd.), and an increased value of TG in blood plasma by administration of the lipid was calculated. An increased value of TG in blood plasma in a solvent control group was used as a control, and an inhibiting rate in increase of TG in blood plasma in the Test compound administered group was calculated.

## CC(C)(COc1ccc(-c2ccc(-c3ncc(CCC4CC4)[nH]3)cn2)cc1)C(=O)O [Example 30]
[1]
  inhibition in vivo at 5 mg/kg: 68%
[2]
  inhibition in vivo at 5 mg/kg: 60%

## CC(C)(COc1ccc(-c2ccc(-c3ncc(C4CCCCCC4)[nH]3)cn2)cc1)C(=O)O [Example 31]
[1]
  inhibition in vivo at 5 mg/kg: 65%
[2]
  inhibition in vivo at 5 mg/kg: 86%

## CCCc1cnc(-c2ccc(-c3ccc(OCC(C)(C)C(=O)O)cc3)nc2)[nH]1 [Example 32]
[1]
  inhibition in vivo at 5 mg/kg: 42%
[2]
  inhibition in vivo at 5 mg/kg: 71%

## Cc1cc(-c2ccc(OCC(C)(C)C(=O)O)cc2)ncc1-c1ncc(C2(C(F)(F)F)CC2)[nH]1 [Example 35-3), 2,2-dimethyl-3-[4-(4-methyl-5-{5-[1-(trifluoromethyl)cyclopropyl]-1H-imidazol-2-yl}pyridin-2-yl)phenoxy]-propanoic acid]
[1]
  inhibition in vivo at 5 mg/kg: 56%
[2]
  inhibition in vivo at 5 mg/kg: 54%

## Cc1cc(OCC(C)(C)C(=O)O)ncc1-c1ccc(-c2ncc(C(C)(C)C(F)(F)F)[nH]2)nc1 [Example 47]
[1]
  inhibition in vivo at 5 mg/kg: 44%
[2]
  inhibition in vivo at 5 mg/kg: 72%

## CC(C)(COc1cnc(-c2ccc(-c3ncc(C4(C(F)(F)F)CC4)[nH]3)cc2)cn1)C(=O)O [Example 49]
[1]
  inhibition in vivo at 5 mg/kg: 58%
[2]
  inhibition in vivo at 5 mg/kg: 48%

## CC(C)(COc1ccc(-c2ccc(-c3ncc(C4CCCCC4)[nH]3)cn2)cc1)C(=O)O [Example 56]
[1]
  inhibition in vivo at 5 mg/kg: 76%
[2]
  inhibition in vivo at 5 mg/kg: 61%

## CCc1cnc(-c2ccc(-c3ccc(OCC(C)(C)C(=O)O)cc3)nc2)[nH]1 [Example 58-2), 3-[4-[5-(5-ethyl-1H-imidazol-2-yl)-2-pyridyl]phenoxy]-2,2-dimethylpropanoic acid]
[1]
  inhibition in vivo at 5 mg/kg: 65%
[2]
  inhibition in vivo at 5 mg/kg: 64%

## CC(C)Cc1cnc(-c2ccc(-c3ccc(OCC(C)(C)C(=O)O)nc3)nc2)[nH]1 [Example 59]
[1]
  inhibition in vivo at 5 mg/kg: 50%
[2]
  inhibition in vivo at 5 mg/kg: 74%

## O=C(O)C1(COc2ccc(-c3ccc(-c4ncc(C(F)(F)F)[nH]4)cn3)cc2)CC1 [Example 60-3), 1-[[4-[5-[5-(trifluoromethyl)-1H-imidazol-2-yl]-2-pyridyl]phenoxy]methyl]cyclopropanecarboxylic acid]
[1]
  inhibition in vivo at 5 mg/kg: 59%
[2]
  inhibition in vivo at 5 mg/kg: 48%

## CC(C)(COc1ccc(-c2ccc(-c3ncc(C(F)(F)F)[nH]3)cn2)c(F)c1)C(=O)O [Example 64]
[1]
  inhibition in vivo at 5 mg/kg: 78%
[2]
  inhibition in vivo at 5 mg/kg: 60%

## CC(C)(COc1ccc(-c2ccc(-c3ncc(C(F)(F)F)[nH]3)cn2)cc1)CC(=O)O [Example 65]
[1]
  inhibition in vivo at 5 mg/kg: 79%
[2]
  inhibition in vivo at 5 mg/kg: 75%

## CC(C)(COc1ncc(-c2ccc(-c3ncc(C(F)(F)F)[nH]3)cc2)cn1)C(=O)O [Example 67]
[1]
  inhibition in vivo at 5 mg/kg: 58%
[2]
  inhibition in vivo at 5 mg/kg: 70%

## CC(C)(COc1ccc(-c2ccc(-c3ncc(C(F)(F)F)[nH]3)nc2)cc1)C(=O)O [Example 68]
[1]
  inhibition in vivo at 5 mg/kg: 63%
[2]
  inhibition in vivo at 5 mg/kg: 64%

## Cc1cc(OCC2(C(=O)O)CC2)ccc1-c1ccc(-c2ncc(C(F)(F)F)[nH]2)cn1 [Example 71]
[1]
  inhibition in vivo at 5 mg/kg: 29%
[2]
  inhibition in vivo at 5 mg/kg: 50%

## CC(C)(COc1ncc(-c2ccc(-c3ncc(C(F)(F)F)[nH]3)c(Cl)c2)cc1F)C(=O)O [Example 82]
[1]
  inhibition in vivo at 5 mg/kg: 42%
[2]
  inhibition in vivo at 5 mg/kg: 47%

## CCc1cc(OCC(C)(C)C(=O)O)ccc1-c1ccc(-c2ncc(C(F)(F)F)[nH]2)cn1 [Example 85-4), 3-(3-ethyl-4-{5-[5-(trifluoromethyl)-1H-imidazol-2-yl]pyridin-2-yl}phenoxy)-2,2-dimethylpropanoic acid]
[1]
  inhibition in vivo at 5 mg/kg: 70%
[2]
  inhibition in vivo at 5 mg/kg: 69%

## COc1cc(OCC(C)(C)C(=O)O)ccc1-c1ccc(-c2ncc(C(F)(F)F)[nH]2)cn1 [Example 86-3), 3-[3-methoxy-4-[5-[5-(trifluoromethyl)-1H-imidazol-2-yl]-2-pyridyl]phenoxy]-2,2-dimethylpropanoic acid]
[1]
  inhibition in vivo at 5 mg/kg: 21%
[2]
  inhibition in vivo at 5 mg/kg: 68%

## CC(C)(COc1ccc(-c2ccc(-c3ncc(C4(C(F)(F)F)CCC4)[nH]3)cn2)cc1)C(=O)O [Example 88-3), sodium 2,2-dimethyl-3-[4-(5-{5-[1-(trifluoromethyl)cyclobutyl]-1H-imidazol-2-yl}pyridin-2-yl)phenoxy)propanoate]
[1]
  inhibition in vivo at 5 mg/kg: 55%
[2]
  inhibition in vivo at 5 mg/kg: 65%

## CC(C)(COc1ncc(-c2ccc(-c3ncc(C(F)(F)F)[nH]3)cc2)cc1F)C(=O)O [Example 90]
[1]
  inhibition in vivo at 5 mg/kg: 75%
[2]
  inhibition in vivo at 5 mg/kg: 83%

## CC(C)(COc1cnc(-c2ccc(-c3ncc(C(F)(F)F)[nH]3)c(F)c2)cn1)C(=O)O [Example 91]
[1]
  inhibition in vivo at 5 mg/kg: 51%
[2]
  inhibition in vivo at 5 mg/kg: 51%

## CC(C)(COc1ccc(-c2ccc(-c3nc(C(F)(F)F)c[nH]3)cc2)cc1)C(=O)O [Example 93-3), 3-({4′-[5-(trifluoromethyl)-1H-imidazol-2-yl]biphenyl-4-yl}oxy)-2,2-dimethylpropanoic acid]
[1]
  inhibition in vivo at 5 mg/kg: 68%
[2]
  inhibition in vivo at 5 mg/kg: 67%

## Cc1cc(OCC2(C(=O)O)CCC2)ncc1-c1ccc(-c2ncc(C(F)(F)F)[nH]2)nc1 [Example 97-5), 1-[({4-methyl-6′-[5-(trifluoromethyl)-1H-imidazol-2-yl]-3,3′-bipyridin-6-yl}oxy)methyl]cyclobutanecarboxylic acid]
[1]
  inhibition in vivo at 5 mg/kg: 92%
[2]
  inhibition in vivo at 5 mg/kg: 102%

## Cc1cc(OCC2(C(=O)O)CCC2)ncc1-c1ccc(-c2ncc(C(F)(F)F)[nH]2)c(F)c1 [Example 98-3), 1-{[(5-{3-fluoro-4-[5-(trifluoromethyl)-1H-imidazol-2-yl]phenyl}-4-methylpyridin-2-yl)oxy]methyl}cyclobutanecarboxylic acid]
[1]
  inhibition in vivo at 5 mg/kg: 89%
[2]
  inhibition in vivo at 5 mg/kg: 105%

## Cc1cc(OCC2(C(=O)O)CCC2)ncc1-c1cnc(-c2ncc(C(F)(F)F)[nH]2)c(Cl)c1 [Example 99-6), 1-[({5′-chloro-4-methyl-6′-[5-(trifluoromethyl)-1H-imidazol-2-yl]-3,3′-bipyridin-6-yl}oxy)methyl]cyclobutanecarboxylic acid]
[1]
  inhibition in vivo at 5 mg/kg: 85%
[2]
  inhibition in vivo at 5 mg/kg: 95%

## Cc1cc(OCC2(C(=O)O)CCC2)ncc1-c1ccc(-c2ncc(C(F)(F)F)[nH]2)c(Cl)c1 [Example 101-3), 1-{[(5-{3-chloro-4-[5-(trifluoromethyl)-1H-imidazol-2-yl]phenyl}-4-methylpyridin-2-yl)oxy]methyl}cyclobutanecarboxylic acid]
[1]
  inhibition in vivo at 5 mg/kg: 57%
[2]
  inhibition in vivo at 5 mg/kg: 71%

## Cc1cc(OCC(C)(C)C(=O)O)ncc1-c1ccc(-c2ncc(CC(C)C)[nH]2)cc1 [Example 104]
[1]
  inhibition in vivo at 5 mg/kg: 62%
[2]
  inhibition in vivo at 5 mg/kg: 67%

## Cc1cc(OCC(C)(C)C(=O)O)ncc1-c1ccc(-c2ncc(CC3CC3)[nH]2)cc1 [Example 108]
[1]
  inhibition in vivo at 5 mg/kg: 62%
[2]
  inhibition in vivo at 5 mg/kg: 52%

## Cc1cc(OCC(C)(C)C(=O)O)ncc1-c1ccc(-c2ncc(CC3CC3)[nH]2)c(C)c1 [Example 109]
[1]
  inhibition in vivo at 5 mg/kg: 41%
[2]
  inhibition in vivo at 5 mg/kg: 50%

## Cc1cc(OCC(C)(C)C(=O)O)ncc1-c1ccc(-c2ncc(C(C)(C)C(F)(F)F)[nH]2)c(F)c1 [Example 115]
[1]
  inhibition in vivo at 5 mg/kg: 62%
[2]
  inhibition in vivo at 5 mg/kg: 50%

## Cc1cc(OCC(C)(C)C(=O)O)ncc1-c1ccc(-c2ncc(C(F)(F)C(F)(F)F)[nH]2)nc1 [Example 116]
[1]
  inhibition in vivo at 5 mg/kg: 76%
[2]
  inhibition in vivo at 5 mg/kg: 82%
